Measured values reported in patent US9481648B2, “Kinase inhibitors” (Respivert Limited, priority 2013, dated 2016).
Where two headings read alike, the source gives them in different places.

What was measured:
[1] = tested on: β-catenin in d-U937 cells; experiment: Accumulation of β catenin in d-U937 cells (assay m); assay type: cell-based, human
How it was run: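 U937 cells were differentiated with PMA (100 ng/mL) for 48–72 hr, then treated with compound or vehicle for 18 hr. After formaldehyde fixation, β-catenin was detected with a primary antibody and an HRP secondary using TMB (OD450–655). Signal was normalised to crystal violet cell staining (OD595).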

[2] = tested on: adoptive transfer (CD45RBhigh cells) colitis in SCID mice; experiment: Adoptive transfer in mice (in vivo v); design: species or system mouse
Protocol: On Study day 0, female Balb/C mice are terminated and spleens obtained for CD45RB^high cell isolation (Using SCID IBD cell Separation protocol). Approximately 4×10^5 cells/mL CD45RB^high cells are then injected intraperitoneally (100 μL/mouse) into female SCID animals. On study day 14, mice are weighed and randomized into treatment groups based on body weight. On Day 14, compounds are administered BID, via oral gavage, in a peanut oil vehicle at the dose levels outlined below in Tables 6a and 6b and a dose volume of 5 mL/kg. Treatment continues until study day 42, at which point the animals are necropsied 4 hours after the morning administration. The colon length and weight are recorded and used as a secondary endpoint in the study as a measurement of colon oedema. The colon is then divided into six cross-sections, four of which are used for histopathology scoring (primary endpoint) and two are homogenised for cytokine analysis. Data shown is the % inhibition of the induction window between naïve animals and vehicle animals, where higher inhibition implies closer to the non-diseased, naïve, phenotype.

[3] = tested on: endotoxin (LPS)-induced uveitis in Lewis rats; experiment: Endotoxin-induced uveitis in rats (in vivo vi); design: species or system rat
[4] = Human hepatocyte stability test; assay type: in vitro ADME; settings: human hepatocytes
Protocol: (§1) Assessment of certain in vitro ADME (absorption, distribution, metabolism, and excretion) parameters for certain compounds of the invention was conducted by BioFocus (Saffron Walden, UK).

[5] = molecular target: CYP2C9 (Homo sapiens (Human), UniProt P11712); experiment: CYP2C9 inhibition study; assay type: in vitro ADME; settings: for inhibition at 15 µM: human, read-out: 15 μM % Inh
Protocol: as §1

[6] = tested on: Salmonella typhimurium strain TA100; experiment: Mutagenicity assessment (bacterial reverse mutation screen); assay type: cell-based; settings: strain TA100, presence or absence of S-9 mix, up to 1000 μg/plate analysable
Protocol: (§2) Studies were conducted by Sequani (Ledbury, Herefordshire, UK) to assess compounds of the invention for their ability to induce mutations in two histidine dependent auxotrophic mutants of Salmonella typhimurium, strains TA98 and TA100 in vitro.
(§3) The mutation screen was conducted using the plate incorporation method and was performed in both the presence and absence of S-9 mix (a liver post-mitochondrial fraction derived from the livers of Aroclor 1254 treated rats). The bacteria were exposed to test compounds dissolved in dimethylsulphoxide, which solvent was also used as the negative control. The dose levels used were 0.32, 1.6, 8, 40, 200, 1000 or 5000 μg/plate.
(§4) Precipitation was also noted in both strains at 1000 μg/plate in the presence and absence of S-9 mix.

[7] = tested on: Salmonella typhimurium strain TA98; experiment: as above; assay type: cell-based; settings: strain TA98, presence or absence of S-9 mix, up to 1000 μg/plate analysable
Protocol: as §2, §3, §4

[8] = Hydrolytic stability study; assay type: physicochemical; settings: DMSO:water (3:1), 1 mg/mL
Protocol: Chemical stability of compounds of the invention was assessed in a mixture of DMSO and water (3:1) at a test compound concentration of 1 mg/mL
Sample Preparation • A 1.0 mg sample of test compound was dissolved in 750 μL of DMSO. Water (250 μL) was added slowly, ensuring no precipitation occurred.
Recording Stability • A 50 μL aliquot of the test solution was removed and analysed in duplicate by 5 μL HPLC injections. The peak area for the test compound was recorded following manual integration of the corresponding UV trace. • The test solution was heated to 60° C., with stirring, and 50 μL aliquots removed for HPLC analysis at 5 and 24 h timepoints.

[9] = 3 mg/kg, adoptive transfer mouse model
[10] = Table 7b, eyes of LPS-stimulated rats, 1 mg/mL

Chain of CYP2C9 (P11712 whole entry): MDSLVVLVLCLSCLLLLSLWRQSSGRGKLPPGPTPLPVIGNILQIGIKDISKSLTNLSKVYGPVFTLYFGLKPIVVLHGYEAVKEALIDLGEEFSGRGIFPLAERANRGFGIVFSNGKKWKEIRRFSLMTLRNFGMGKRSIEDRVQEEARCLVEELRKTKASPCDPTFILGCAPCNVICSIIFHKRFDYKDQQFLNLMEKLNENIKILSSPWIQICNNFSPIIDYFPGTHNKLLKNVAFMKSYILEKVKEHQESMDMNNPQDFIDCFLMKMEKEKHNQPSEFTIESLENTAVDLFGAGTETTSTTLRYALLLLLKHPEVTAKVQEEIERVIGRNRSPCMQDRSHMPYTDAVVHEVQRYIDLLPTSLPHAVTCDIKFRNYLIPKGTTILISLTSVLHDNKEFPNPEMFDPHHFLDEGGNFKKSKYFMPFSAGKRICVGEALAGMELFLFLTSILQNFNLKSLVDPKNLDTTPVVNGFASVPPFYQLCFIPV

COc1cc(Nc2cc(Oc3ccc(NC(=O)Nc4cc(C(C)(C)C)cc(NS(C)(=O)=O)c4OC)c4ccccc34)ccn2)cc(C(=O)NCCN2CCOCC2)c1 [Example 27]
% β-catenin induction ([1]; test compound 1 μg/mL): −12%
% β-catenin induction ([1]; test compound 5 μg/mL): −7%
% β-catenin induction ([1]; test compound 10 μg/mL): −1%
Colon weight:length ([2]; 3 mg/kg BID oral gavage, adoptive transfer mouse model): 0.022 ± 0.002
% Inhibition (of the induction window between naïve and vehicle animals) ([2]; 3 mg/kg BID oral gavage, colon weight:length): 99%
IFNγ level in colon tissue [2, 9]: 19.1 ± 6.5 pg/mL
IL-8 level in colon tissue [2, 9]: 131.1 ± 56.1 pg/mL
levels of pro-inflammatory cytokines in samples of colon tissue ([2]; adoptive transfer mouse model): significantly reduced
Colon weight:length ([2]; adoptive transfer mouse model, 0.03 mg/kg BID oral): 0.047 ± 0.005
Colon weight:length ([2]; adoptive transfer mouse model, 0.3 mg/kg BID oral): 0.038 ± 0.004
Colon weight:length ([2]; adoptive transfer mouse model, 3 mg/kg BID oral): 0.034 ± 0.003
IL-1β Anterior [3, 10]: 640 ± 263 pg/mL
IL-1β Posterior [3, 10]: 394 ± 115 pg/mL
IL-6 Anterior [3, 10]: 519 ± 196 pg/mL
IL-6 Posterior [3, 10]: 424 ± 116 pg/mL
MCP-1 Anterior [3, 10]: 282 ± 109 pg/mL
MCP-1 Posterior [3, 10]: 352 ± 109 pg/mL
cytokine levels in both the anterior and posterior segments of the eyes ([3]; rats treated with intravitreal endotoxin LPS, topical dosing): significantly reduced
half-life [4]: 1.6 h
hepatocyte CLint ([4]; read-out: Mean intrinsic clearance): 15 µL/min/1e6 cells
IC50 ([5]; CYP2C9, 0 min preincubation): > 15 µM
IC50 ([5]; CYP2C9, 30 min preincubation): > 13 µM
inhibition at 15 µM ([5]; CYP2C9, 0 min preincubation): 13%
inhibition at 15 µM ([5]; CYP2C9, 30 min preincubation): 55%
increases in revertant colonies [6]: no dose-related or statistically significant increases
increases in revertant colonies [7]: no dose-related or statistically significant increases
% Parent Remaining ([8]; 0 min): 100%
% Parent Remaining ([8]; 60° C., 300 min): 102%
% Parent Remaining ([8]; 60° C., 1440 min): 102%
